In patent US20170198359A1, “METHODS AND COMPOSITIONS FOR TREATMENT OR DIAGNOSIS OF CANCERS RELATED TO GABRA3” (The Wistar Institute of Anatomy and Biology, priority 2016, published 2017):
Entries after “also recorded” stand apart in the source; their conditions may differ.

Legend:
[1] = test system: MCF7 cells stably expressing GABRA3; test: Transwell migration assay, MCF7-GABRA3 cells with AKT inhibitor; type: cell-based, human; settings: different concentrations of the inhibitor vs control DMSO, FIG. 11A
Protocol: (§1) In vitro cell migration assays were performed as described previously (21, 22) using Trans-well chambers ([…] pore size; Costar). Cells were allowed to grow to subconfluency (˜75-80%) and were serum-starved for 24 h. After detachment with trypsin, cells were washed with PBS, resuspended in serum-free medium and 250 μl cell suspensions (2×10^5 cells ml−1) was added to the upper chamber. Complete medium was added to the bottom wells of the chambers. The cells that had not migrated were removed from the upper face of the filters using cotton swabs, and the cells that had migrated to the lower face of the filters were fixed with 5% glutaraldehyde solution and stained with 0.5% solution of Toluidine Blue in 2% sodium carbonate. Images of three random ×10 fields were captured from each membrane and the number of migratory cells was counted. […]
(§2) It has previously been shown that A-to-I edited GABRA3 affected the intracellular trafficking of GABRA3 (18), which is critical for the localization of GABRA3 on cell membrane. We determined the expression of GABRA3 on cell surface of breast cancer cells using FACS analysis. […] Since AKT pathway is critical in both breast cancer metastasis and therapy resistance (27-29), we determined the effect of GABRA3 on AKT activation and whether AKT pathway mediates GABRA3 functions in migration and invasion. […]

[2] = test system: MCF7 cells stably expressing GABRA3; test: Matrigel invasion assay, MCF7-GABRA3 cells with AKT inhibitor; type: cell-based, human; settings: different concentrations of the inhibitor vs control DMSO, FIG. 11B
Protocol: as §1, §2

[3] = test system: MDA-MB-436 cells; test: Boyden chamber migration assay, MDA-MB-436 cells with GABRA3 inhibitors; type: cell-based, human; settings: various concentrations (10 nM-10 μM), FIG. 12
Protocol: (§3) MDA-MB-436 cells were treated with GABRA3 inhibitors picrotoxin or flumazenil at various concentrations (10 nM-10 μM). Cells were then subjected to Boyden chamber assays (see, e.g., Ostrander et al, Cancer Res May 1, 2007 67; 4199, which is incorporated herein by reference).

[4] = test system: MDA-MB-436 cells; test: Boyden chamber invasion assay, MDA-MB-436 cells with GABRA3 inhibitors; type: cell-based, human; settings: various concentrations (10 nM-10 μM), FIG. 12
Protocol: as §3

[5] = test system: melanoma; settings: melanoma treatment, clinical trials; cited from earlier work

With `NC1(c2ccc(-c3nc4ccn5c(=O)[nH]nc5c4cc3-c3ccccc3)cc2)CCC1` [MK-2206] the cell migration [1] was “inhibited cell migration and invasion in a dose-dependent manner; also recorded: suppressed” and the cell invasion [2] was “inhibited cell migration and invasion in a dose-dependent manner; also recorded: suppressed”.

For picrotoxin, the cell migration [3] was “suppress” and the cell invasion [4] was “suppress”.

In the case of `Nc1nc2ccc(OC(F)(F)F)cc2s1` [Riluzole], the anti-tumor activity [5] is listed as “significant anti-tumor activity”.

With `CCOC(=O)c1ncn2c1CN(C)C(=O)c1cc(F)ccc1-2` [flumazenil] the cell migration [3] was “suppress” and the cell invasion [4] was “suppress”.
